Test results published in article PMC7558399, “In Vitro Selective Growth-Inhibitory Activities of Phytochemicals, Synthetic Phytochemical Analogs, and Antibiotics against Diarrheagenic/Probiotic Bacteria and Cancer/Normal Intestinal Cells” (Pharmaceuticals, 2020).
Structures can show the parent of a compound that is named as a salt. Where two headings read alike, the source gives them in different places.

Legend:
Format in all cases: cell-based
[1] = test system: Bacillus cereus (ATCC 14579); assay: Broth microdilution MIC, B. cereus; conditions: median/mode, read-out: MIC
[2] = test system: Clostridium difficile (DSMZ 12056); assay: microbe, parasite or virus in culture; conditions: Clostridioides difficile, DSMZ12056
[3] = test system: Clostridium perfringens (DSMZ 11778); assay: microbe, parasite or virus in culture; conditions: DSMZ11778
[4] = test system: Enterococcus faecalis (ATCC 29212); assay: Broth microdilution MIC, E. faecalis; conditions: read-out: MIC
[5] = test system: Escherichia coli (ATCC 25922); assay: Broth microdilution MIC, E. coli; conditions: read-out: MIC
[6] = test system: E. coli 0175:H7 (NCTC 12900); assay: microbe, parasite or virus in culture; conditions: Escherichia coli, NCTC12900
[7] = test system: Listeria monocytogenes (ATCC 7644); assay: Broth microdilution MIC, L. monocytogenes
[8] = test system: Shigella flexneri (ATCC 12022); assay: microbe, parasite or virus in culture
[9] = test system: Salmonella enterica ssp. enterica serovar Enteritidis (ATCC 13076); assay: Broth microdilution MIC, Salmonella Enteritidis; conditions: Salmonella Enteritidis, read-out: MIC
[10] = test system: S. enterica ssp. enterica serovar Typhimurium (ATCC 14028); assay: Broth microdilution MIC, Salmonella Typhimurium; conditions: Salmonella Typhimurium, read-out: MIC
[11] = test system: Vibrio parahaemolyticus (ATCC 17802); assay: Broth microdilution MIC, V. parahaemolyticus; conditions: read-out: MIC
[12] = test system: Yersinia enterocolitica (ATCC 9610); assay: Broth microdilution MIC, Y. enterocolitica; conditions: read-out: MIC
[13] = test system: diarrheagenic bacteria (12 strains); assay: microbe, parasite or virus in culture
[14] = test system: Bacteroides fragilis (ATCC 25285); assay: Broth microdilution MIC, B. fragilis
[15] = test system: Bifidobacterium adolescentis (DSMZ 20087); assay: Broth microdilution MIC, B. adolescentis
[16] = test system: Bifidobacterium animalis spp. lactis (DSMZ 10140); assay: Broth microdilution MIC, B. animalis spp. lactis; conditions: DSMZ10140
[17] = test system: Bifidobacterium bifidum (ATCC 29521); assay: Broth microdilution MIC, B. bifidum
[18] = test system: Bifidobacterium breve (ATCC 15700); assay: Broth microdilution MIC, B. breve
[19] = test system: Bifidobacterium longum ssp. longum (DSMZ 20219); assay: Broth microdilution MIC, B. longum ssp. longum; conditions: DSMZ20219
[20] = test system: Lactobacillus casei (DSMZ 20011); assay: Broth microdilution MIC, L. casei; conditions: Lacticaseibacillus casei, DSMZ20011, Lactobacillus casei, read-out: MIC
[21] = test system: Lactobacillus reuteri (CCM 3625); assay: Broth microdilution MIC, L. reuteri; conditions: Limosilactobacillus reuteri, CCM3625
[22] = test system: Lactobacillus rhamnosus (CCM 7091); assay: Broth microdilution MIC, L. rhamnosus; conditions: Lacticaseibacillus rhamnosus, CCM7091, Lactobacillus rhamnosus, read-out: MIC
[23] = test system: probiotic bacteria (9 strains); assay: Broth microdilution MIC, probiotic bacteria as a group (mean or range over strains)
[24] = test system: HT29 (ATCC HTB 38) intestinal cancer cells; assay: MTT cytotoxicity assay, HT29; conditions: Homo sapiens; for IC50: read-out: IC50 ± SD; for IC80: read-out: IC80 ± SD (80% inhibitory concentration of proliferation)
[25] = test system: Caco-2 (ATCC HTB 37) intestinal cancer cells; assay: MTT cytotoxicity assay, Caco-2; conditions: Homo sapiens; for IC50: read-out: IC50 ± SD; for IC80: read-out: IC80 ± SD (80% inhibitory concentration of proliferation)
[26] = test system: intestinal cancer cells (HT29 and Caco-2); assay: MTT cytotoxicity assay, mean for intestinal cancer cells; conditions: for IC50: read-out: x¯ -CC ± SD: mean IC50 for intestinal cancer cells; for IC80: read-out: x¯ -CC ± SD: mean IC80 for intestinal cancer cells
[27] = test system: FHs 74 Int (ATCC CCL 241) intestinal normal cells; assay: MTT cytotoxicity assay, FHs 74 Int; conditions: 72 h; for IC50 / IC80: FHs74Int
[28] = test system: 21 strains (diarrheagenic and probiotic bacteria); assay: organism not typed; conditions: any of the 21 strains
[29] = ATCC7644, growth inhibited by ≥80%, read-out: MIC
[30] = mean of 12 strains, >512 replaced with 1024, read-out: x¯ -DB ± SD: mean MIC for diarrheagenic bacteria
[31] = mean of 9 strains, >512 replaced with 1024, read-out: x¯ -PB ± SD: mean MIC for probiotic bacteria
[32] = Clostridium difficile, […], read-out: MIC
[33] = FHs 74 Int (intestinal normal cells), MTT

COc1ccc2cc3[n+](cc2c1OC)CCc1cc2c(cc1-3)OCO2 [BR, berberine chloride]
MIC ([1]; ATCC14579, growth inhibited by ≥80%): > 512 µg/mL
MIC [2]: > 512 µg/mL
MIC [3]: 256 µg/mL
MIC ([4]; ATCC29212, growth inhibited by ≥80%): > 512 µg/mL
MIC ([5]; ATCC25922, growth inhibited by ≥80%): > 512 µg/mL
MIC [6]: > 512 µg/mL
MIC [7, 29]: > 512 µg/mL
MIC ([8]; ATCC12022): > 512 µg/mL
MIC ([9]; growth inhibited by ≥80%): > 512 µg/mL
MIC ([10]; growth inhibited by ≥80%): 512 µg/mL
MIC ([11]; ATCC17802, growth inhibited by ≥80%): 512 µg/mL
MIC ([12]; ATCC9610, growth inhibited by ≥80%): > 512 µg/mL
MIC [13, 30]: 875 ± 256 µg/mL
MIC ([14]; ATCC25285, growth inhibited by ≥80%, read-out: MIC): > 512 µg/mL
MIC ([15]; DSMZ20087, growth inhibited by ≥80%, read-out: MIC): 128 µg/mL
MIC ([16]; Bifidobacterium animalis spp. lactis, growth inhibited by ≥80%, read-out: MIC): 32 µg/mL
MIC ([17]; ATCC29521, growth inhibited by ≥80%, read-out: MIC): 64 µg/mL
MIC ([18]; ATCC15700, growth inhibited by ≥80%, read-out: MIC): 64 µg/mL
MIC ([19]; Bifidobacterium longum ssp. longum, growth inhibited by ≥80%, read-out: MIC): 32 µg/mL
MIC ([20]; growth inhibited by ≥80%): 64 µg/mL
MIC ([21]; Lactobacillus reuteri, growth inhibited by ≥80%, read-out: MIC): > 512 µg/mL
MIC ([22]; growth inhibited by ≥80%): 64 µg/mL
MIC [23, 31]: 277 ± 400 µg/mL
IC50 ([24]; HT-29, HT29, MTT, 72 h): 5 ± 1 µg/mL
IC80 ([24]; HT-29, HT29, MTT, 72 h): 42.1 ± 7.3 µg/mL
IC50 ([25]; Caco-2, MTT, 72 h): 19.4 ± 2.9 µg/mL
IC80 ([25]; Caco-2, MTT, 72 h): 78.9 ± 0.3 µg/mL
IC50 ([26]; mean of HT29 and Caco-2, >512 replaced with 1024): 12.2 ± 7 µg/mL
IC80 [26]: 60.5 ± 18.4 µg/mL
IC50 ([27]; FHs 74 Int (intestinal normal cells), MTT, read-out: IC50 ± SD): 1 ± 0.1 µg/mL
IC80 ([27]; FHs 74 Int (intestinal normal cells), MTT, read-out: IC80 ± SD (80% inhibitory concentration of proliferation)): 26.4 ± 0.8 µg/mL
MIC [28]: ≥ 32 µg/mL

C[n+]1cc2c3c(ccc2c2ccc4cc5c(cc4c21)OCO5)OCO3 [SG, sanguinarine chloride]
MIC ([1]; ATCC14579, […]): 128 µg/mL
MIC [2, 32]: 64 µg/mL
MIC [3]: 128 µg/mL
MIC ([4]; ATCC29212, […]): 32 µg/mL
MIC ([5]; ATCC25922, […]): 256 µg/mL
MIC [6]: 128 µg/mL
MIC ([7]; ATCC7644): 16 µg/mL
MIC ([8]; ATCC12022): 64 µg/mL
MIC ([9]; […]): 256 µg/mL
MIC ([10]; […]): 512 µg/mL
MIC ([11]; ATCC17802, […]): 32 µg/mL
MIC ([12]; ATCC9610, […]): 256 µg/mL
MIC [13, 30]: 156 ± 137 µg/mL
MIC ([14]; ATCC25285): 32 µg/mL
MIC ([15]; DSMZ20087): 16 µg/mL
MIC ([16]; Bifidobacterium animalis): 32 µg/mL
MIC ([17]; ATCC29521): 32 µg/mL
MIC ([18]; ATCC15700): 32 µg/mL
MIC ([19]; Bifidobacterium longum): 64 µg/mL
MIC ([20]; […]): 32 µg/mL
MIC [21]: 32 µg/mL
MIC ([22]; […]): 64 µg/mL
MIC ([23]; read-out: x¯ -PB ± SD: mean MIC for probiotic bacteria): 37.3 ± 15 µg/mL
IC50 ([24]; HT-29, HT29, MTT, 72 h): 0.9 ± 0.2 µg/mL
IC80 ([24]; HT-29, HT29, MTT, 72 h): 1.8 ± 0.4 µg/mL
IC50 ([25]; Caco-2, 72 h): 0.8 ± 0.1 µg/mL
IC80 ([25]; Caco-2, 72 h): 1.5 ± 0.1 µg/mL
IC50 [26]: 0.8 ± 0.05 µg/mL
IC80 [26]: 1.6 ± 0.2 µg/mL
IC50 ([27]; read-out: IC50 ± SD): 1 ± 0.1 µg/mL
IC80 ([27]; read-out: IC80 ± SD (80% inhibitory concentration of proliferation)): 1.9 ± 0.2 µg/mL

CN[C@H](CC(C)C)C(=O)N[C@H]1C(=O)N[C@@H](CC(N)=O)C(=O)N[C@H]2C(=O)N[C@H]3C(=O)N[C@H](C(=O)N[C@H](C(=O)O)c4cc(O)cc(O)c4-c4cc3ccc4O)[C@H](O)c3ccc(c(Cl)c3)Oc3cc2cc(c3O[C@@H]2O[C@H](CO)[C@@H](O)[C@H](O)[C@H]2O[C@H]2C[C@](C)(N)[C@H](O)[C@H](C)O2)Oc2ccc(cc2Cl)[C@H]1O [VM, vancomycin hydrochloride]
MIC ([1]; ATCC14579, […]): 256 µg/mL
MIC [2, 32]: 2 µg/mL
MIC [3]: 1 µg/mL
MIC ([4]; ATCC29212, […]): > 512 µg/mL
MIC ([5]; ATCC25922, […]): > 512 µg/mL
MIC [6]: 512 µg/mL
MIC [7, 29]: 8 µg/mL
MIC ([8]; ATCC12022, […], read-out: MIC): > 512 µg/mL
MIC ([9]; […]): 512 µg/mL
MIC ([10]; […]): 512 µg/mL
MIC ([11]; ATCC17802, […]): 256 µg/mL
MIC ([12]; ATCC9610, […]): > 512 µg/mL
MIC ([13]; both clostridial species tested, read-out: MICs): 0.5 to 8 µg/mL
MIC [13, 30]: 513 ± 404 µg/mL
MIC ([14]; ATCC25285, […], read-out: MIC): 32 µg/mL
MIC ([15]; DSMZ20087, […], read-out: MIC): 2 µg/mL
MIC ([16]; Bifidobacterium animalis spp. lactis, […], read-out: MIC): 2 µg/mL
MIC ([17]; ATCC29521, […], read-out: MIC): 4 µg/mL
MIC ([18]; ATCC15700, […], read-out: MIC): 4 µg/mL
MIC ([19]; Bifidobacterium longum ssp. longum, […], read-out: MIC): 2 µg/mL
MIC ([20]; […]): 256 µg/mL
MIC ([21]; Lactobacillus reuteri, […], read-out: MIC): 64 µg/mL
MIC ([22]; […]): 64 µg/mL
MIC ([23]; bifidobacteria, range over strains, read-out: MICs): 2 to 4 µg/mL
MIC ([23]; lactobacilli, range over strains, read-out: MICs): 64 to 256 µg/mL
MIC [23, 31]: 47.8 ± 78 µg/mL
IC50 ([24]; HT-29, 72 h): > 512 µg/mL
IC80 ([24]; HT-29, 72 h): > 512 µg/mL
IC50 ([25]; Caco-2, 72 h): > 512 µg/mL
IC80 ([25]; Caco-2, 72 h): > 512 µg/mL
IC50 [26]: > 512 µg/mL
IC80 [26]: > 512 µg/mL
IC50 ± SD [27, 33]: - (Not active (MIC/IC50/80 > 512 μg/mL, the value 1024 μg/mL was used for average calculation))
IC80 ± SD (80% inhibitory concentration of proliferation) [27, 33]: - (Not active (MIC/IC50/80 > 512 μg/mL, the value 1024 μg/mL was used for average calculation))
IC50 ([27]; read-out: IC50 ± SD, FHs 74 Int (intestinal normal cells), MTT): > 512 µg/mL
IC80 ([27]; read-out: IC80 ± SD (80% inhibitory concentration of proliferation), FHs 74 Int (intestinal normal cells), MTT): > 512 µg/mL
